This note sets out measurements from patent US9024017B2, “Octahydro-cyclopentapyrrolyl antagonists of CCR2” (Janssen Pharmaceutica NV, priority 2012, dated 2015).

The target of this test is T1, CCR2 (Homo sapiens, UniProt P41597).
T1 construct: host or cells: THP-1 (human monocytic cell line)
Kind of test: MCP-1 Receptor Binding Assay in THP-1 Cells. The conditions noted are these: read-out: MCP1B_v3 IC50. The essentials: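 Human monocytic THP-1 cells incubated 2 h at 30 °C with 0.5 nM 125I-MCP-1 and varying concentrations of test compound or unlabelled MCP-1. Cells filter-harvested and counted by scintillation; blank subtracted, compared with vehicle; nonspecific binding with 1 μM cold MCP-1.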

T1 sequence (P41597 whole entry): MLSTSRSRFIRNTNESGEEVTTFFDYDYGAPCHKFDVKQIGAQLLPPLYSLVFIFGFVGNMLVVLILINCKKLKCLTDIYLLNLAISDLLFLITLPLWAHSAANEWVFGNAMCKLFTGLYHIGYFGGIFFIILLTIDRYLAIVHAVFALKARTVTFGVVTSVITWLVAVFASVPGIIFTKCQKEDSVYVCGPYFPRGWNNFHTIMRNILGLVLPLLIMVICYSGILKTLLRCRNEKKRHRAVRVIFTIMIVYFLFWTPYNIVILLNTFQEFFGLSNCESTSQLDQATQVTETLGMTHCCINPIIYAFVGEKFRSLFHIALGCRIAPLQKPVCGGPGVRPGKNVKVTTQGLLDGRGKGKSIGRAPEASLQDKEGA

Turning to `COC1COCCC1N[C@@H]1C[C@H]2CN(C(=O)OCCN3CCCC3)C[C@@]2(C(=O)N2CCc3ncc(C(F)(F)F)cc3C2)C1` (relative stereo) [Example 45, (3aR,5R,6aR)-2-(Pyrrolidin-1-yl)ethyl 5-(((3S*,4S*)-3-methoxytetrahydro-2H-pyran-4-yl)amino)-3a-(3-(trifluoromethyl)-5,6,7,8-tetrahydro-1,6-naphthyridine-6-carbonyl)hexahydrocyclopenta[c]pyrrole-2(1H)-carboxyl], the IC50 is 70 nM. As for `COC1COCCC1N[C@@H]1C[C@H]2CN(C3COC3)C[C@@]2(C(=O)N2CCc3ccc(C(F)(F)F)cc3C2)C1` (relative stereo) [Example 100, ((3aR,5R,6aR)-5-(((3S*,4S*)-3-Methoxytetrahydro-2H-pyran-4-yl)amino)-2-(oxetan-3-yl)octahydrocyclopenta[c]pyrrol-3a-yl)(7-(trifluoromethyl)-3,4-dihydroisoquinolin-2(1H)-yl)methanone], the IC50 came to 30 nM. Next, `COC1COCCC1N[C@@H]1C[C@H]2CN(C(C)=O)C[C@@]2(C(=O)N2CCc3ncc(C(F)(F)F)cc3C2)C1` (relative stereo) [Example 66, 1-((3aR,5R,6aR)-5-(((3S*,4S*)-3-Methoxytetrahydro-2H-pyran-4-yl)amino)-3a-(3-(trifluoromethyl)-5,6,7,8-tetrahydro-1,6-naphthyridine-6-carbonyl)hexahydrocyclopenta-[c]pyrrol-2(1H)-yl)ethanone]: 400 nM. The figure for `COC1COCCC1N[C@@H]1C[C@H]2CN(C(N)=O)C[C@@]2(C(=O)N2CCc3ncc(C(F)(F)F)cc3C2)C1` (relative stereo) [Example 2, (3aR,5R,6aR)-5-(((3S*,4S*)-(3-Methoxytetrahydro-2H-pyran-4-yl)amino)-3a-(3-(trifluoromethyl)-5,6,7,8-tetrahydro-1,6-naphthyridine-6-carbonyl)hexahydrocyclopenta[c]pyrrole-2(1H)-carboxamide] is 60 nM. The figure for `COC1COCCC1N[C@@H]1C[C@H]2CN(C(=O)CNC(=O)OC(C)(C)C)C[C@@]2(C(=O)N2CCc3ncc(C(F)(F)F)cc3C2)C1` (relative stereo) [Example 87, tert-Butyl (2-((3aR,5R,6aR)-5-(((3S*,4S*)-3-methoxytetrahydro-2H-pyran-4-yl)amino)-3a-(3-(trifluoromethyl)-5,6,7,8-tetrahydro-1,6-naphthyridine-6-carbonyl)hexahydrocyclopenta[c]pyrrol-2(1H)-yl)-2-oxoethyl)carbamate] is 360 nM; for `COC1COCCC1N[C@@H]1C[C@H]2CN(C(=O)Oc3ccccc3)C[C@@]2(C(=O)N2CCc3ncc(C(F)(F)F)cc3C2)C1` (relative stereo) [Example 37, (3aR,5R,6aR)-Phenyl 5-(((3S*,4S*)-3-methoxytetrahydro-2H-pyran-4-yl)amino)-3a-(3-(trifluoromethyl)-5,6,7,8-tetrahydro-1,6-naphthyridine-6-carbonyl)hexahydro-cyclopenta[c]pyrrole-2(1H)-carboxylate] it is 150 nM; for `COC1COCCC1N[C@@H]1C[C@H]2CN(C3CC3)C[C@@]2(C(=O)N2CCc3ncc(C(F)(F)F)cc3C2)C1` (relative stereo) [Example 94, ((3aR,5R,6aR)-2-Cyclopropyl-5-(((3S*,4S*)-3-methoxytetrahydro-2H-pyran-4-yl)amino)octahydrocyclopenta[c]pyrrol-3a-yl)(3-(trifluoromethyl)-7,8-dihydro-1,6-naphthyridin-6(5H)-yl)methanone] it is 180 nM. For `COC1COCCC1N[C@@H]1C[C@H]2CN(C(=S)NCC(C)C)C[C@@]2(C(=O)N2CCc3ncc(C(F)(F)F)cc3C2)C1` (relative stereo) [Example 29, (3aR,5R,6aR)-N-Isobutyl-5-(((3S*,4S*)-3-methoxytetrahydro-2H-pyran-4-yl)amino)-3a-(3-(trifluoromethyl)-5,6,7,8-tetrahydro-1,6-naphthyridine-6-carbonyl)hexahydrocyclopenta[c]pyrrole-2(1H)-carbothioamide], the IC50 amounted to 30 nM.

Regarding `CO[C@@H]1COCC[C@@H]1N[C@@H]1C[C@H]2CN(C(=O)/C=C/c3cccc(C(=O)O)c3)C[C@@]2(C(=O)N2CCc3ccc(C(F)(F)F)cc3C2)C1` (relative stereo) [Example 90, 3-((E)-3-((3aR,5R,6aR)-5-(((3S*,4S*)-3-methoxytetrahydro-2H-pyran-4-yl)amino)-3a-(7-(trifluoromethyl)-1,2,3,4-tetrahydroisoquinoline-2-carbonyl)hexahydrocyclopenta-[c]pyrrol-2(1H)-yl)-3-oxoprop-1-en-1-yl)benzoic acid], the IC50 amounted to 10 nM.

Take `COC1COCCC1N[C@@H]1C[C@H]2CN(C(=S)n3ccnc3)C[C@@]2(C(=O)N2CCc3ncc(C(F)(F)F)cc3C2)C1` (relative stereo) [Example 31, ((3aR,5R,6aR)-2-(1H-Imidazole-1-carbonothioyl)-5-(((3S*,4S*)-3-methoxytetrahydro-2H-pyran-4-yl)amino)octahydrocyclopenta[c]pyrrol-3a-yl)(3-(trifluoromethyl)-7,8-dihydro-1,6-naphthyridin-6(5H)-yl)methanone]: the concentration for half-maximal inhibition (IC50) is 80 nM.

For the molecule `COC1COCCC1N[C@@H]1C[C@H]2CN(C3CCOCC3OC)C[C@@]2(C(=O)N2CCc3ccc(C(F)(F)F)cc3C2)C1` (relative stereo) [Example 105, ((3aR,5R,6aR)-2-((3S*,4S*)-3-Methoxytetrahydro-2H-pyran-4-yl)-5-(((3S*,4S*)-3-methoxytetrahydro-2H-pyran-4-yl)amino)octahydrocyclopenta[c]pyrrol-3a-yl)(7-(trifluoromethyl)-3,4-dihydroisoquinolin-2(1H)-yl)methanone], the IC50 was 120 nM. Next, `COC1COCCC1N[C@@H]1C[C@H]2CN(S(=O)(=O)Cc3ccccc3)C[C@@]2(C(=O)N2CCc3ncc(C(F)(F)F)cc3C2)C1` (relative stereo) [Example 92, ((3aR,5R,6aR)-2-(Benzylsulfonyl)-5-(((3S*,4S*)-3-methoxytetrahydro-2H-pyran-4-yl)amino)octahydrocyclopenta[c]pyrrol-3a-yl)(3-(trifluoromethyl)-7,8-dihydro-1,6-naphthyridin-6(5H)-yl)methanone]: 1100 nM. The figure for `COC1COCCC1N[C@@H]1C[C@H]2CN(C(N)=O)C[C@@]2(C(=O)NCc2cccc(C(F)(F)F)c2)C1` (relative stereo) [Example 10, (3aR,5R,6aR)-5-(((3S*,4S*)-3-Methoxytetrahydro-2H-pyran-4-yl)amino)-N^3a-(3-(trifluoromethyl)benzyl)hexahydrocyclopenta[c]pyrrole-2,3a(1H)-dicarboxamide] is 320 nM; for `COC1COCCC1N[C@@H]1C[C@H]2CN(C=O)C[C@@]2(C(=O)N2CCc3ncc(C(F)(F)F)cc3C2)C1` (relative stereo) [Example 114, (3aR,5R,6aR)-5-(((3S*,4S*)-3-Methoxytetrahydro-2H-pyran-4-yl)amino)-3a-(3-(trifluoromethyl)-5,6,7,8-tetrahydro-1,6-naphthyridine-6-carbonyl)hexahydrocyclopenta-[c]pyrrole-2(1H)-carbaldehyde] it is 370 nM; for `COC1COCCC1N[C@@H]1C[C@H]2CN(C(=O)OCc3ccccc3)C[C@@]2(C(=O)N2CCc3ncc(C(F)(F)F)cc3C2)C1` (relative stereo) [Example 56, (3aR,5R,6aR)-Benzyl 5-(((3S*,4S*)-3-methoxytetrahydro-2H-pyran-4-yl)amino)-3a-(3-(trifluoromethyl)-5,6,7,8-tetrahydro-1,6-naphthyridine-6-carbonyl)hexahydrocyclopenta[c]pyrrole-2(1H)-carboxylate] it is 120 nM. As for `CO[C@H]1COCC[C@H]1N[C@@H]1C[C@H]2CN(C(=O)OCCC3CCOCC3)C[C@@]2(C(=O)N2CCc3ncc(C(F)(F)F)cc3C2)C1` [Example 44, (3aR,5R,6aR)-2-(Tetrahydro-2H-pyran-4-yl)ethyl 5-(((3R,4R)-3-methoxytetrahydro-2H-pyran-4-yl)amino)-3a-(3-(trifluoromethyl)-5,6,7,8-tetrahydro-1,6-naphthyridine-6-carbonyl)hexahydrocyclopenta[c]pyrrole-2(1H)-carboxylate], the half-maximal inhibitory concentration (IC50) stood at 80 nM. As for `C#CCOC(=O)N1C[C@@H]2C[C@@H](NC3CCOCC3OC)C[C@]2(C(=O)N2CCc3ncc(C(F)(F)F)cc3C2)C1` (relative stereo) [Example 53, (3aR,5R,6aR)-Prop-2-yn-1-yl 5-(((3S*,4S*)-3-methoxytetrahydro-2H-pyran-4-yl)amino)-3a-(3-(trifluoromethyl)-5,6,7,8-tetrahydro-1,6-naphthyridine-6-carbonyl)hexahydrocyclopenta[c]pyrrole-2(1H)-carboxylate], the IC50 was 200 nM. Take `COCCOC(=O)N1C[C@@H]2C[C@@H](NC3CCOCC3OC)C[C@]2(C(=O)N2CCc3ccc(C(F)(F)F)cc3C2)C1` (relative stereo) [Example 49, (3aR,5R,6aR)-2-Methoxyethyl 5-(((3S*,4S*)-3-methoxytetrahydro-2H-pyran-4-yl)amino)-3a-(7-(trifluoromethyl)-1,2,3,4-tetrahydroisoquinoline-2-carbonyl)hexahydrocyclopenta[c]pyrrole-2(1H)-carboxylate]: the concentration for half-maximal inhibition (IC50) came to 10 nM. The figure for `COC1COCCC1N[C@@H]1C[C@H]2CN(C(=O)OCC(C)(C)C)C[C@@]2(C(=O)N2CCc3ncc(C(F)(F)F)cc3C2)C1` (relative stereo) [Example 36, (3aR,5R,6aR)-Neopentyl 5-(((3S*,4S*)-3-methoxytetrahydro-2H-pyran-4-yl)amino)-3a-(3-(trifluoromethyl)-5,6,7,8-tetrahydro-1,6-naphthyridine-6-carbonyl)hexahydro-cyclopenta[c]pyrrole-2(1H)-carboxylate] is 560 nM; for `COC1COCCC1N[C@@H]1C[C@H]2CN(C(=O)OCc3cccc(C#N)c3)C[C@@]2(C(=O)N2CCc3ncc(C(F)(F)F)cc3C2)C1` (stereo partly drawn) [Example 59, (3aR,5R,6aR)-3-Cyanobenzyl 5-((3-methoxytetrahydro-2H-pyran-4-yl)amino)-3a-(3-(trifluoromethyl)-5,6,7,8-tetrahydro-1,6-naphthyridine-6-carbonyl)hexahydrocyclopenta-[c]pyrrole-2(1H)-carboxylate] it is 220 nM.

What is called IC50 is the concentration needed to halve the response being measured.
